Tests used:
[1] = test system: inner forearm of each panelist; test: Corneometer analysis of test gel formulations, scaled moisturization performance (SMP); format: in vivo; settings: average of 8 panelists, water = 0, glycerol = 1, 22° C., 50% RH; for Corneometer SMP results, 6 hours: 6 hours after single application of gel with 5 wt % active; for Corneometer SMP results, 30 hours: 30 hours after single application of gel with 5 wt % active
Description: To prepare a gel formulation, deionized water was added to a 4 oz. tall jar that was set up for mixing using an overhead mixer and a jiffy blade. The water was then mixed at a speed that created a good vortex that nearly reached the bottom of the jar (e.g., about 700 rpm). To this, Carbopol® 940 (cross-linked polyacrylate polymer available from Lubrizol, Wickliffe, Ohio) was slowly added and mixed for at least 15 minutes until homogeneous. Triethanolamine (TEA) was then added and the mixing speed was adjusted overhead to about 200 rpm and continued mixing for about 10 minutes (e.g., product viscosity increased). To this mixture was added 5 wt % of the moisturizing agent, as either a single agent or a combination of agents, followed by 0.5 wt % Glydant™ Plus™ (a preservative available from Lonza, Basel, Switzerland) and the remaining, balance water. Mixing was continued at 200 rpm for about 15-20 minutes. The mixture was then removed from the mixer and the final pH was measured. Prior to analysis, samples were centrifuged at 2000 rpm for 15 minutes to remove suspended air pockets from the gel formulation.
About 30 μl of each test gel formulation was applied once (e.g., in a single application with no additional re-applications) in a circle with diameter of about 3 cm on the inner forearm of each panelist. Moisture levels were measured using a Corneometer® CM 825 (available from CK Industries) prior to application of the test gel formulations, and at 6 hour and 30 hour intervals after application, at a temperature of 22° C. and relative humidity of 50%.
To facilitate more meaningful comparisons of the corneometer data for the different test formulations, the following adjustment were made to minimize the variations in the response of humectant treatment: the moisturization performance for glycerol was defined to be 1, and that for water to be zero, then the scaled moisturization performance (SMP) for a specific moisturizing active was defined as: […]
RActive, Rwater, and Rglycerol were the actual corneometer readings of the test gel formulations comprising the active moisturizing agent(s), water, and glycerol, respectively, for an individual panelist at a specific time after the initial treatment. The overall SMP of each tested activewas then the average of SMP over 8 panelists. […] The SMP values illustrated in FIG. 4 provide narrower standard deviations over 8 panelists when compared to actual corneometer readings in FIG. 3.
Using this procedure, corneometer measurements were taken at 6 hours and 30 hours for hydroxyethyl urea, glycerol, the DGA acetamide:glycerol (83:17 wt %) of Example 1, the DGA Acetamide of Example 2, a 1:1 mixture of the DGA Acetamide of Example 2 with hydroxyethyl urea, and a 1:1 mixture of the DGA Acetmaide of Example 2 with glycerol. Measurements were taken at six hours and 30 hours on eight subjects, and calculated as scaled moisturization performance values.

[2] = Dynamic Vapor Sorption (DVS) analysis, equilibrium water absorption; format: physicochemical; settings: DVS at 50% humidity, 25° C., single moisturizing agents / Ex. 1 and 2 products
Description: Dynamic Vapor Sorption (DVS) technique was used to measure the moisture intake of a specific compound at certain humidity level. DVS Intrinsic instrument manufactured by Surface Measurement Systems UK Ltd. (London, United Kingdom) was used to measure DVS. The following measurement procedure was used to determine the water vapor absorption of a specific composition.
A uniform aqueous solution of a target composition was made at 50% concentration. About 1.2 to 1.6 mg of the prepared aqueous solution was added to DVS instrument at zero tare balance. The temperature was then set at 25° C. A measurement was performed at 90% humidity to ensure that the sample absorbs the highest level of water in order to minimize the mass transfer barrier during the evaporation process. The dynamics of water absorption was determined by the weight change per minute; with water absorption equilibrium defined as the time at which the weight change per minute was less than 0.005% of the sample weight. The equilibrium weight at 0% humidity is the sample weight by itself. Thus, the percentage of equilibrium water absorption at various humidity levels was calculated.
Using the above procedure, DVS was used to evaluate water absorption for compositions comprising DGA Acetamide, other moisturizing agents, and combinations of DGA Acetamide and various additional moisturizing agents. First, DVS values were obtained at 50% humidity for the DGA acetamide products of Examples 1 and 2 above and other selected moisturizing agents.
Then, 1:1 mixtures based on weight were made of each of the DGA Acetamide products of Examples 1 and 2 above with each of the other four moisturizing agents, where the DGA acetamide product of Example 1 is DGA Acetamide:glycerol (83 wt %:17 wt %) and the DGA acetamide product of Example 2 is substantially 100% DGA acetamide. DVS measurements were taken at 50% humidity, using the same amount of total moisturizing agent. It was expected that the DVS values of the mixtures with the other four moisturizing agents would have been the average of the DVS values of each of the moisturizing agents individually, based on the weight percent of each in the mixture.

Compound: CC(=O)NCCOCCO [C, N-acetyl diglycolamine]
- Corneometer SMP results, 6 hours [1]: 0.80
- Corneometer SMP results, 30 hours [1]: 0.92
- % water absorbed (based on weight of moisturizing agent) [2]: 26.9%

Compound: CC(O)C(=O)[O-].[Na+] (centres unmarked) [F, Sodium lactate]
- % water absorbed (based on weight of moisturizing agent) [2]: 35.1%

Compound: OCC(O)CO [D, Glycerol]
- Corneometer SMP results, 6 hours [1]: 1.0
- Corneometer SMP results, 30 hours [1]: 1.0
- % water absorbed (based on weight of moisturizing agent) [2]: 27.7%

Compound: NC(=O)NCCO [A, Hydroxyethyl urea]
- Corneometer SMP results, 6 hours [1]: 0.91
- Corneometer SMP results, 30 hours [1]: 1.03
- % water absorbed (based on weight of moisturizing agent) [2]: 19.7%

Compound: O=C1CCC(C(=O)[O-])N1.[Na+] (centres unmarked) [E, sodium pyrrolidone carboxylate]
- % water absorbed (based on weight of moisturizing agent) [2]: 28.7%
